Test results published in patent US11224223B2, “Feeding deterrence of pests such as Hemiptera, Lepidoptera and Coleoptera” (BEDOUKIAN RESEARCH, INC., priority 2012, dated 2022).

Legend:
Type in all cases: in vivo
granary weevils = assay: Granary weevil test on treated wheat kernels; conditions: 5% in isopropyl alcohol, 3 week period
Method: Ten replicates of 30 kernels of wheat were immersed into the test compound and allowed to dry for 24 hours. The grains were then transferred to a test container, and 10 granary weevils were released. Test containers were secured and left for a 3 week period. At the end of this time, the wheat grains were examined for developing larvae and damage by larvae. […] Ten additional replicates treated with isopropyl alcohol were prepared to serve as controls.

saw tooth grain beetles = assay: Repellency of test compounds on grain beetles, treated corn kernels; conditions: 5% in isopropyl alcohol, 3 week period
Method: Ten replicates of 30 kernels of corn are immersed into the test compound and allowed to dry for 24 hours. The kernels are then transferred to a test container, and 10 saw tooth grain beetles are released. Test containers are secured and left for a 3 week period. At the end of this time, the […] grains are examined for feeding damage. […] Ten additional replicates treated with isopropyl alcohol are prepared to serve as controls.

Codling Moth larvae = assay: Repellency as feeding deterrence and mortality in Codling Moth larvae on treated media
Method: Another test was designed to measure the repellency as feeding deterrence in Codling Moth larvae. The treatment was applied to the surface of a proprietary laboratory media in a tray with wells for each compound. The media was allowed to dry for 30-60 minutes so that larvae were not exposed to it as a liquid. One first instar codling moth larva was then placed on the treated media. The cover film was placed on the tray to prevent escapes. Ten additional replicates treated with a 57% ethanol solution were prepared to serve as controls. […] After the 24 hour reading, the larvae were extracted from the media to record any mortality.
Mortality observations were also made for the above protocol. The control was the 57% ethanol:43% water solution.

psyllids = assay: Psyllid repellency on potato choice assays; conditions: 3% compound; potato plants; 100 psyllids per cage; control 50/50
Excerpt: Psyllid Repellency on Potato Choice Assays
(§1) Potato plants are sprayed with either a 3% solution of repellent chemical in a 5%:95% ETOH:Water or only 5%:95% ETOH:Water as a control. Two plants are placed in a screen cage, either a treatment vs control tree or a control vs control tree, 100 psyllids are released into each cage. The number of psyllids choosing each leaf is counted for both choice tests. The number of psyllids choosing each treatment is compared to the control to determine if there is a repellent effect.

Popillia japonica = assay: Japanese beetle feeding damage on basil; conditions: 3% compound; basil leaf disks; adult beetle; 24 h
Method: (§2) Japanese Beetle Feeding Damage on Basil For choice feeding assays, 3% alcohol solutions of the tested compounds are prepared. Disks (4.0 cm in diameter) are cut from basil leaves and are dipped in the test solutions or alcohol alone as a control. After the complete evaporation of the solvent, the disks are offered to 1 adult beetle. All dishes are placed in an incubator. Four replicates are used for each chemical. After 24 h, the remaining uneaten area of each basil leaf disk is measured using a scanner and software. The selective antifeeding rate (%) formula is [(C−T)/(C+T)]×100, and the non-selective antifeeding rate (%) formula is [(C−T)/C)]×100, where C and T are the areas consumed by the control and treated leaf disks, respectively.

[1] = system: Euschistus heros-Neotropical Brown Stink Bugs; assay: Stink bug feeding damage on soybean pods; conditions: 3% compound, soybean plants at R6 stage, 48 hours
Method: To compare the feeding/resting preference of stink bug adults for different plant parts, 10 pots with soybean plants at the R6 (pod-filling) stage of development are used. 5 pots of soybeans are sprayed with 3% of treatment in a 2% Triton X:water solution and 5 pots of soybean are treated with 2% Triton X:water solution as controls. Thirty stink bugs are placed individually in each cage and allowed to feed for 48 hours. Insects are removed and plant parts are collected for visual analysis of damage. Feeding damage on the pods is counted for both treatments. The selective antifeeding rate (%) formula is [(C−T)/(C+T)]×100, and the non-selective antifeeding rate (%) formula is [(C−T)/C)]×100, where C and T are the numbers of feeding damages on the control and treated plant pods, respectively.

Sitostroga cerealella = assay: Feeding repellent assay for Angoumois larva on treated rice; conditions: 10% compound in a 5% Ethanol:95% water solution, third instar larvae, 1 week
Method: Feeding Repellent Assay for Angoumois Larva
(§3) One gram of rice is weighed and treated with 2% by weight of each test chemical or ethanol as a control for each treatment and replicate. The grains are allowed to dry and then weighed again. Treated or control rice grains are placed in a petri dish. Third instar larvae are starved for 8 h and gently introduced into the center of each compartment. 20 larva are screened per treatment, and each experiment is repeated three times. The weight of rice grains is measured again after 1 week. The selective antifeeding rate (%) formula is [(C−T)/(C+T)]×100, and the non-selective antifeeding rate (%) formula is [(C−T)/C)]×100, where C and T are the areas consumed by the control and treated leaf disks, respectively.

Plodia interpunctella = assay: Feeding repellent assay for Indian meal moth larva on treated rice; conditions: 10% compound in a 5% Ethanol:95% water solution, third instar larvae, 1 week
Method: as §3, with “Feeding Repellent Assay for Indian Meal Moth Larva One” for “One”

Dermestid spp. = assay: Dermestid beetle feeding damage on silk fabric; conditions: 3% compound; undyed silk disks; late instar larvae; 1 week
Method: Dermestid Beetle Feeding Damage on Silk Fabric
For feeding assays, 3% alcohol solutions of the tested compounds are prepared. Disks (4.0 cm in diameter) of undyed silk fabric are dipped in the test solutions or alcohol alone as a control. After the complete evaporation of the solvent, the disks are offered to 10 late instar larvae. All dishes are placed in an incubator. Four replicates are used for each chemical. After 1 week, the remaining uneaten area of each silk disk is measured using a scanner and software. The selective antifeeding rate (%) formula is [(C−T)/(C+T)]×100, and the non-selective antifeeding rate (%) formula is [(C−T)/C)]×100, where C and T are the areas consumed by the control and treated silk disks, respectively.

[2] = system: Leptinotarsa decemlineata-Colorado Potatoe Beetles; assay: Choice feeding assay on potato leaf disks; conditions: 3% compound, larvae, 24 h
Method: as §2, with “For” for “Japanese Beetle Feeding Damage on Basil For”, “potato” for “basil”, “10 larvae. Control and treated disks are placed at alternate corners in Petri dishes (150 by 20 mm) lined with moistened filter paper (choice test).” for “1 adult beetle.”, “replicates and 40 larva” for “replicates”, “chemical. In each replicate, the insects are allowed to feed ad libitum for 24 h at 24 C under a 16:8 (L:D) photoperiod.” for “chemical.”

Aphis gossypii = assay: Melon aphid repellency on leaf choice assays; conditions: 3% compound in a Triton X:Water solution; n=100; control 50/50
Excerpt: Melon Aphid Repellency on Leaf Choice Assays Aphis gossypii are maintained on squash plants. Individual aphids (n=100) are given the choice between leaves with and without repellent treatments. A separate group of aphids are given a choice between untreated vs. untreated leaves as a control. The number of aphids choosing each leaf is counted both choice tests. The number of aphids choosing each treatment is compared to the control to determine the repellent effect.

Tineola spp. = assay: Clothes moth feeding damage on silk fabric, choice test; conditions: 3% compound; silk disks; late instar larvae; 24 hours; control 50/50
Method: For feeding assays, 3% alcohol solutions of the tested compounds are prepared. Disks (2.0 cm in diameter) of undyed silk fabric are dipped in the test solutions or alcohol alone as a control. After the complete evaporation of the solvent, the disks are presented in a choice test to 10 late instar Tineola spp. larvae. All dishes are placed in an incubator in the dark. Four replicates are used for each chemical. After 24 hours, the number of individuals choosing to feed on each disk are counted.

sharpshooters = assay: Leafhopper repellency on citrus choice assays; conditions: 3% compound; citrus seedlings; 100 sharpshooters per cage; control 50/50
Excerpt: as §1, with “Leafhopper Repellency on Citrus Choice Assays Citrus seedlings” for “Potato plants”, “seedlings” for “plants”, “tree.” for “tree,”, “sharpshooters” for “psyllids”

[3] = system: brown marmorated stink bugs (BMSB); assay: Repellency as feeding deterrence in brown marmorated stink bugs, treated filter paper with green bean; conditions: compound at 3.5% in a 57% Ethanol:43% water solution; control 38%
Method: A test was designed to measure the repellency as feeding deterrence in brown marmorated stink bugs (BMSB). Five replicates of 5 BMSBs were introduced into test arenas, containing one 60 mm×15 mm Petri dish with treated filter papers in which a food source (green bean) was attached, at the start of the test. The small Petri dishes containing the treated filter paper and food source were covered with a fitted Petri dish lid in between observation times, and were removed 5 minutes before each observation time to prevent stink bugs from feeding until sated. The distribution of the BMSBs was observed and documented hourly for 5 hours.

CC1=CC(O)CC(CC(C)C)C1 (centres unmarked) [3-Methyl-5-Isobutyl-2-Cyclohexenol]
Increased Mortality over Control Mortality (granary weevils): 93% | Increased Repellency vs. Control Repellency (granary weevils): 86% | Increased Repellency vs. Control Repellency (saw tooth grain beetles): 85%

CCCC1CC(=O)C=C(C)C1 (centres unmarked) [3-Methyl-5-Propyl-2-Cyclohexenone]
Repellency at 24 hours (Codling Moth larvae; compound at 3.5% in a 57% Ethanol:43% water solution, first instar larva, control 8%): 21% | Increased Mortality over Control Mortality at 24 hours (Codling Moth larvae; in vivo): 1% | Increased Mortality over Control Mortality (granary weevils): 57% | Increased Repellency vs. Control Repellency (granary weevils): 66% | Increased Repellency vs. Control Repellency (saw tooth grain beetles): 60%

CCCCCCCCCC1CCC(=O)O1 (centres unmarked) [Gamma Tridecalactone]
Number of Psyllids Choosing each Treatment: Treated (psyllids): 20 | Number of Psyllids Choosing each Treatment: Untreated (psyllids): 80 | % Repellency (Popillia japonica): 40% | % Antifeedent Activity [1]: 80% | % Antifeedent Activity (Sitostroga cerealella): 70% | Increased Repellency vs. Control Repellency (granary weevils): 40% | % Antifeedent Activity (Plodia interpunctella): 70% | % Repellency (Dermestid spp.): 40% | % Repellency [2]: 40% | Increased Repellency vs. Control Repellency (saw tooth grain beetles): 40% | Number of Aphids Choosing each Treatment: Treated (Aphis gossypii): 20 | Number of Aphids Choosing each Treatment: Untreated (Aphis gossypii): 80 | Individuals choosing to feed on each disk: Treated (Tineola spp.): 10 | Individuals choosing to feed on each disk: Untreated (Tineola spp.): 90 | Number of Psyllids Choosing each Treatment: Treated (sharpshooters): 20 | Number of Psyllids Choosing each Treatment: Untreated (sharpshooters): 80

CCCCCC1C(=O)CCC1CC(=O)OC (centres unmarked) [Methyl Dihydrojasmonate]
Number of Psyllids Choosing each Treatment: Treated (psyllids): 30 | Number of Psyllids Choosing each Treatment: Untreated (psyllids): 70 | % Repellency (Popillia japonica): 15% | % Antifeedent Activity [1]: 90% | % Antifeedent Activity (Sitostroga cerealella): 60% | % Antifeedent Activity (Plodia interpunctella): 60% | % Repellency (Dermestid spp.): 15% | % Repellency [2]: 15% | Number of Aphids Choosing each Treatment: Treated (Aphis gossypii): 30 | Number of Aphids Choosing each Treatment: Untreated (Aphis gossypii): 70 | Repellency averaged over 5 hours [3]: 90% | Individuals choosing to feed on each disk: Treated (Tineola spp.): 20 | Individuals choosing to feed on each disk: Untreated (Tineola spp.): 80 | Number of Psyllids Choosing each Treatment: Treated (sharpshooters): 30 | Number of Psyllids Choosing each Treatment: Untreated (sharpshooters): 70

CCCCCC1C(O)CCC1CC(=O)OC (centres unmarked) [Methyl dihydrojasmolate]
Number of Psyllids Choosing each Treatment: Treated (psyllids): 30 | Number of Psyllids Choosing each Treatment: Untreated (psyllids): 70 | % Repellency (Popillia japonica): 15% | % Antifeedent Activity [1]: 90% | % Antifeedent Activity (Sitostroga cerealella): 60% | % Antifeedent Activity (Plodia interpunctella): 60% | % Repellency (Dermestid spp.): 15% | % Repellency [2]: 15% | Number of Aphids Choosing each Treatment: Treated (Aphis gossypii): 30 | Number of Aphids Choosing each Treatment: Untreated (Aphis gossypii): 70 | Individuals choosing to feed on each disk: Treated (Tineola spp.): 20 | Individuals choosing to feed on each disk: Untreated (Tineola spp.): 80 | Number of Psyllids Choosing each Treatment: Treated (sharpshooters): 30 | Number of Psyllids Choosing each Treatment: Untreated (sharpshooters): 70
